Data taken from ChEMBL document CHEMBL3244033, “Potential antitumor agents. 21. Dialkanolamine dialkanesulfonic esters” (J Med Chem, 1977).

Legend:
L1210 = assay: Antileukemic activity against mouse L1210 cells allografted in ip dosed C3H/HeJ female X DBA2/J male F1 hybrid mouse assessed as maximal increase in host life span at LD10 administered as single dose 24 hrs after tumor implantation; assay type: functional
[1] = Lipophilic-hydrophilic balance, Rm of the compound using mixture of glycerol, i-BuOH and 1-pentanol plus methanesulfonic acid as solvent system by acidic reversed-phase chromatography; assay type: physicochemical
Mus musculus = assay: Acute toxicity in ip dosed C3H/HeJ female X DBA2/J male F1 hybrid mouse allografted with mouse L1210 cells assessed as mortality administered as single dose; assay type: organism-based; settings: in vivo
[2] = Dissociation constant, pKa of the compound; assay type: physicochemical

`CS(=O)(=O)OCCCCCCNCCCOS(C)(=O)=O.Cl` gave an Activity (L1210) of 107%, a Rm [1] of -0.65 and an LD10 (Mus musculus) of 33 mg/kg.

Work on `CCCCS(=O)(=O)OCCNCCOS(=O)(=O)CCCC.Cl` yielded an Activity (L1210) of 105%, a Rm [1] of 0.37 and an LD10 (Mus musculus) of 750 mg/kg.

`CCS(=O)(=O)OCCNCCOS(=O)(=O)CC.Cl` showed an Activity (L1210) of 26%, a Rm [1] of -0.64 and an LD10 (Mus musculus) of 35 mg/kg.

Work on `CCS(=O)(=O)OCCCCCCNCCOS(=O)(=O)CC.Cl` yielded an Activity (L1210) of 83%, a Rm [1] of -0.19 and an LD10 (Mus musculus) of 285 mg/kg.

With `CS(=O)(=O)OCCNCCOS(C)(=O)=O.Cl` the Activity (L1210) was over 25%, the Rm [1] was -1.13 and the LD10 (Mus musculus) was 25 mg/kg.

For `CCCCS(=O)(=O)OCCNCCCCCCOS(=O)(=O)CCC.Cl`, the Activity (L1210) was 35%, the Rm [1] was 0.51 and the LD10 (Mus musculus) was 200 mg/kg.

`CCCCS(=O)(=O)OCCCNCCCOS(=O)(=O)CCCC.Cl` gave a Rm [1] of 0.45.

`CCCCCS(=O)(=O)OCCNCCOS(=O)(=O)CCCCC.Cl` gave an Activity (L1210) of 78%, a Rm [1] of 0.76 and an LD10 (Mus musculus) of 520 mg/kg.

Compound `CS(=O)(=O)OCCCNCCCOS(C)(=O)=O.Cl` has an Activity (L1210) of 84%, a Rm [1] of -0.88 and a pKa [2] of 8.77. It also gave an LD10 (Mus musculus) of 170 mg/kg.

In the case of `CCCS(=O)(=O)OCCNCCOS(=O)(=O)CCC.Cl`, the Activity (L1210) is reported as 57%, the Rm [1] is reported as -0.1 and the LD10 (Mus musculus) is reported as 210 mg/kg.

Compound `CCS(=O)(=O)OCCCCCCNCCCOS(=O)(=O)CC.Cl` has an Activity (L1210) of 78%, a Rm [1] of -0.05 and an LD10 (Mus musculus) of 61 mg/kg.

In the case of `CCCS(=O)(=O)OCCCCCCNCCCOS(=O)(=O)CCC.Cl`, the Activity (L1210) is reported as 45%, the Rm [1] is reported as 0.32 and the LD10 (Mus musculus) is reported as 137 mg/kg.

`CCCS(=O)(=O)OCCCCCCNCCOS(=O)(=O)CCC.Cl` gave an Activity (L1210) of 59%, a Rm [1] of 0.27 and an LD10 (Mus musculus) of 225 mg/kg.

In the case of `CS(=O)(=O)OCCCCCCNCCOS(C)(=O)=O.Cl`, the Activity (L1210) is reported as 91%, the Rm [1] is reported as -0.71 and the LD10 (Mus musculus) is reported as 185 mg/kg.

`CCS(=O)(=O)OCCCNCCCOS(=O)(=O)CC.Cl` showed an Activity (L1210) of 100%, a Rm [1] of -0.47 and an LD10 (Mus musculus) of 410 mg/kg.

With `CCCS(=O)(=O)OCCCNCCCOS(=O)(=O)CCC.Cl` the Activity (L1210) was 75%, the Rm [1] was 0.09 and the LD10 (Mus musculus) was 285 mg/kg.
